Experimental data as given in US20200361871A1 (Enterprise Therapeutics Ltd., priority 2018, published 2020).

Molecular target: human TMEM16A (TMEM16Aabc variant) (Homo sapiens, UniProt Q5XXA6, DEL476-501, form not given)
Experiment: Automated whole-cell patch clamp (Qpatch) TMEM16A potentiator assay in FRT cells stably expressing human TMEM16A
Format: cell-based
Settings: for % Potentiation @ 3.33 μM Avg: 3.33 μM solution of test compound, percentage increase of baseline TMEM16A current; for EC50: calculated EC50, Qpatch TMEM16A current at +70 mV
Outline: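 Potentiation was read as the rise in peak +70 mV current over baseline (%), from cumulative 5-min additions of compound. Recordings used whole-cell automated patch of FRT cells stably carrying human TMEM16Aabc, with pipette Ca2+ buffered to give ~20% maximal current. EC50 and efficacy came from concentration-response fits.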

Sequence of human TMEM16A (TMEM16Aabc variant) (Q5XXA6 with tags, fused parts or gaps DEL476-501): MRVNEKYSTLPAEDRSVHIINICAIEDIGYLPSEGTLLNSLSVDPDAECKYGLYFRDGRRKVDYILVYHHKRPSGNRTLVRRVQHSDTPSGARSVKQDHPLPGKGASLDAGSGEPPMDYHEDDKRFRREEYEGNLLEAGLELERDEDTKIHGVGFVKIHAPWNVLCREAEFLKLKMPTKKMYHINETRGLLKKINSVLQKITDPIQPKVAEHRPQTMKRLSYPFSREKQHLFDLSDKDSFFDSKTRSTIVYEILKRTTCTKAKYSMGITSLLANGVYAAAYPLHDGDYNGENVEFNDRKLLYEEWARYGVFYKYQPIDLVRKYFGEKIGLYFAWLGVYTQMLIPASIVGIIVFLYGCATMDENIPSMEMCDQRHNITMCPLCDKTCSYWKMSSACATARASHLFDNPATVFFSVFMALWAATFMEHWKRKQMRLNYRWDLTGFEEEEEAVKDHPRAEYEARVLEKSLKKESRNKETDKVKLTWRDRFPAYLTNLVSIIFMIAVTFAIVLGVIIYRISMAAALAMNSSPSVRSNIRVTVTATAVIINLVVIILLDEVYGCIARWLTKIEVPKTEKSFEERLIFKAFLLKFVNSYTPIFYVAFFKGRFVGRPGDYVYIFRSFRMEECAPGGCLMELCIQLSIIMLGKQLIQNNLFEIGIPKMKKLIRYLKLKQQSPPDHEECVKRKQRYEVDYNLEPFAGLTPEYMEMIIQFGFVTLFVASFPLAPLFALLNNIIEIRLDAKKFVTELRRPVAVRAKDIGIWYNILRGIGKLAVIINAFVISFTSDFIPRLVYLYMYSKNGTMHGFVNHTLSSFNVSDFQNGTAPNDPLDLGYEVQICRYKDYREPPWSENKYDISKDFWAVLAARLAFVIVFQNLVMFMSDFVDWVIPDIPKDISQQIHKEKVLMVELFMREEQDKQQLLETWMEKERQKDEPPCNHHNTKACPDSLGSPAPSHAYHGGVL

| % Potentiation @ 3.33 μM Avg [%] | SMILES | EC50 [nM] |
| --- | --- | --- |
| 60 | C#CC(C)(C)NC(=O)c1cc(NC(=O)CC2CCOc3ccccc32)ccn1 (centres unmarked) [Example 79, 4-[(2-Chroman-4-ylacetyl)amino]-N-(1,1-dimethylprop-2-ynyl)pyridine-2-carboxamide] | – |
| 45 | C#CC(C)(C)NC(=O)c1cc(NC(=O)Cc2c(C)nn(C(C)C)c2C)ccn1 [Example 79.1, N-(1,1-Dimethylprop-2-ynyl)-4-[[2-(1-isopropyl-3,5-dimethyl-pyrazol-4-yl)acetyl]amino]pyridine-2-carboxamide] | – |
| 130 | N#CC1(NC(=O)c2cccc(NC(=O)Cc3cc(Cl)ccc3O)c2)CCOCC1 [Example 80, 3-[[2-(5-Chloro-2-hydroxy-phenyl)acetyl]amino]-N-(4-cyanotetrahydropyran-4-yl) benzamide] | – |
| 108 | CC(C#N)(CO)NC(=O)c1cc(NC(=O)Cc2cc(F)ccc2O)ccn1 (centres unmarked) [Example 81.1, N-(1-Cyano-2-hydroxy-1-methyl-ethyl)-4-[[2-(5-fluoro-2-hydroxy-phenyl)acetyl]amino] pyridine-2-carboxamide] | – |
| 74 | O=C(Cc1cc(F)ccc1O)Nc1ccnc(C(=O)NC2(CO)CCC2)c1 [Example 81.5, 4-[[2-(5-Fluoro-2-hydroxy-phenyl)acetyl]amino]-N-[1-(hydroxymethyl)cyclobutyl] pyridine-2-carboxamide] | – |
| 6 | CC(C)(C#N)NC(=O)c1cc(NC(=O)c2ccsc2)ccn1 [Example 83, N-(1-Cyano-1-methyl-ethyl)-4-(thiophene-3-carbonylamino)pyridine-2-carboxamide] | – |
| 159 | CC(C)(C#N)NC(=O)c1cc(NC(=O)CC2CCCCC2)ccn1 [Example 83.1, N-(1-Cyano-1-methyl-ethyl)-4-[(2-cyclohexylacetyl)amino]pyridine-2-carboxamide] | – |
| 41 | CC(C)(C#N)NC(=O)c1cc(NC(=O)C2CCCCC2)ccn1 [Example 83.2, N-(1-Cyano-1-methyl-ethyl)-4-(cyclohexanecarbonylamino)pyridine-2-carboxamide] | – |
| 16 | CC(C)(C#N)NC(=O)c1cc(NC(=O)C2CCC(F)(F)C2)ccn1 (centres unmarked) [Example 83.3, N-(1-Cyano-1-methyl-ethyl)-4-[(3,3-difluorocyclopentanecarbonyl)amino]pyridine-2-carboxamide] | – |
| 58 | CC(C)(C#N)NC(=O)c1cc(NC(=O)C2(C)CCCC2)ccn1 [Example 83.4, N-(1-Cyano-1-methyl-ethyl)-4-[(1-methylcyclopentanecarbonyl)amino]pyridine-2-carboxamide] | – |
| 185 | CC(C)(C#N)NC(=O)c1cc(NC(=O)CCC2CCCCC2)ccn1 [Example 83.5, N-(1-Cyano-1-methyl-ethyl)-4-(3-cyclohexylpropanoylamino)pyridine-2-carboxamide] | – |
| 248 | CC(C)(C#N)NC(=O)c1cc(NC(=O)CC2CC3CCC2C3)ccn1 (centres unmarked) [Example 83.6, 4-(2-{Bicyclo[2.2.1]heptan-2-yl}acetamido)-N-(1-cyano-1-methylethyl)pyridine-2-carboxamide] | – |
| 147 | CC1(CC(=O)Nc2ccnc(C(=O)NC(C)(C)C#N)c2)CCCCC1 [Example 83.7, N-(1-Cyano-1-methyl-ethyl)-4-[[2-(1-methylcyclohexyl)acetyl]amino]pyridine-2-carboxamide] | – |
| 35 | CC(C)(C#N)NC(=O)c1cc(NC(=O)c2cnc(C3CC3)nc2)ccn1 [Example 83.8, N-[2-[(1-Cyano-1-methyl-ethyl)carbamoyl]-4-pyridyl]-2-cyclopropyl-pyrimidine-5-carboxamide] | – |
| 18 | CC(C)Cc1cc(C(=O)Nc2ccnc(C(=O)NC(C)(C)C#N)c2)on1 [Example 83.9, N-[2-[(1-Cyano-1-methyl-ethyl)carbamoyl]-4-pyridyl]-3-isobutyl-isoxazole-5-carboxamide] | – |
| 62 | CC(C)(C#N)NC(=O)c1cc(NC(=O)CC2CCC(F)(F)CC2)ccn1 [Example 83.10, N-(1-Cyano-1-methyl-ethyl)-4-[[2-(4,4-difluorocyclohexyl)acetyl]amino]pyridine-2-carboxamide] | – |
| 13 | CC(C)(C#N)NC(=O)c1cc(NC(=O)C2(Cc3ccccc3)CC2)ccn1 [Example 83.11, 4-[(1-Benzylcyclopropanecarbonyl)amino]-N-(1-cyano-1-methyl-ethyl)pyridine-2-carboxamide] | – |
| -1 | COc1cc(CCC(=O)Nc2ccnc(C(=O)NC(C)(C)C#N)c2)ccn1 [Example 83.13, N-(1-Cyano-1-methyl-ethyl)-4-[3-(2-methoxy-4-pyridyl)propanoylamino]pyridine-2-carboxamide] | – |
| 70 | Cn1nc(C(C)(C)C)cc1C(=O)Nc1ccnc(C(=O)NC(C)(C)C#N)c1 [Example 83.14, 4-[(5-tert-Butyl-2-methyl-pyrazole-3-carbonyl)amino]-N-(1-cyano-1-methyl-ethyl)pyridine-2-carboxamide] | – |
| -10 | CC(C)(C#N)NC(=O)c1cc(NC(=O)c2ccccc2-n2cccn2)ccn1 [Example 83.15, N-(1-Cyano-1-methyl-ethyl)-4-[(2-pyrazol-1-ylbenzoyl)amino]pyridine-2-carboxamide] | – |
| 60 | CC(C)(C#N)NC(=O)c1cc(NC(=O)c2cccc(C(F)(F)F)n2)ccn1 [Example 83.16, N-[2-[(1-Cyano-1-methyl-ethyl)carbamoyl]-4-pyridyl]-6-(trifluoromethyl)pyridine-2-carboxamide] | – |
| 8 | CC(C)(C#N)NC(=O)c1cc(NC(=O)c2ccc3c(c2)OCC(=O)N3)ccn1 [Example 83.17, N-[2-[(1-Cyano-1-methyl-ethyl)carbamoyl]-4-pyridyl]-3-oxo-4H-1,4-benzoxazine-7-carboxamide] | – |

| SMILES | % Potentiation @ 3.33 μM Avg [%] | EC50 [nM] |
| --- | --- | --- |
| CC1(NC(=O)c2cc(NC(=O)Cc3cc(Cl)c(F)cc3O)ccn2)CCC1 [Example 76, 4-[[2-(5-Chloro-4-fluoro-2-hydroxy-phenyl)acetyl]amino]-N-(1-methylcyclobutyl)pyridine-2-carboxamide] | 366 | 220 |
| C#CC(C)(C)NC(=O)c1cc(NC(=O)Cc2cc(F)ccc2F)ccn1 [Example 77, 4-[[2-(2,5-Difluorophenyl)acetyl]amino]-N-(1,1-dimethylprop-2-ynyl)pyridine-2-carboxamide] | 139 | 410 |
| O=C(Cc1cc(F)ccc1F)Nc1ccnc(C(=O)NC23CCC(F)(C2)C3)c1 [Example 77.1, 4-[[2-(2,5-Difluorophenyl)acetyl]amino]-N-(4-fluoro-1-bicyclo[2.1.1]hexanyl) pyridine-2-carboxamide] | 151 | 540 |
| C#CC(C)(C)NC(=O)c1cc(NC(=O)Cc2ccc(Cl)cc2O)ccn1 [Example 78, 4-[[2-(4-Chloro-2-hydroxy-phenyl)acetyl]amino]-N-(1,1-dimethylprop-2-ynyl)pyridine-2-carboxamide] | 98 | 20 |
| C#CC(C)(C)NC(=O)c1cc(NC(=O)Cc2ccc(C(F)(F)F)cc2O)ccn1 [Example 78.1, N-(1,1-Dimethylprop-2-ynyl)-4-[[2-[2-hydroxy-4-(trifluoromethyl)phenyl]acetyl]amino]pyridine-2-carboxamide] | 238 | 50 |
| C#CC(C)(C)NC(=O)c1cc(NC(=O)Cc2cc(C(F)(F)F)ccc2O)ccn1 [Example 78.2, N-(1,1-Dimethylprop-2-ynyl)-4-[[2-[2-hydroxy-5-(trifluoromethyl)phenyl]acetyl]amino]pyridine-2-carboxamide] | 86 | 20 |
| C#CC(C)(C)NC(=O)c1cc(NC(=O)Cc2cccc3[nH]ncc23)ccn1 [Example 79.2, N-(1,1-Dimethylprop-2-ynyl)-4-[[2-(1H-indazol-4-yl)acetyl]amino]pyridine-2-carboxamide] | 211 | – |
| C#CC(C)(C)NC(=O)c1cc(NC(=O)Cc2cccc3cc[nH]c23)ccn1 [Example 79.3, N-(1,1-Dimethylprop-2-ynyl)-4-[[2-(1H-indol-7-yl)acetyl]amino]pyridine-2-carboxamide] | 64 | 240 |
| CC(C)(C#N)NC(=O)c1cc(NC(=O)Cc2cc(F)ccc2O)ccn1 [Example 81, N-(1-Cyano-1-methyl-ethyl)-4-[[2-(5-fluoro-2-hydroxy-phenyl)acetyl]amino] pyridine-2-carboxamide] | 151 | 370 |
| CC(C)NC(=O)c1cc(NC(=O)Cc2cc(F)ccc2O)ccn1 [Example 81.2, 4-[[2-(5-Fluoro-2-hydroxy-phenyl)acetyl]amino]-N-isopropyl-pyridine-2-carboxamide] | 103 | 420 |
| C#CC(C)(C)NC(=O)c1cc(NC(=O)Cc2cc(F)ccc2O)ccn1 [Example 81.3, N-(1,1-Dimethylprop-2-ynyl)-4-[[2-(5-fluoro-2-hydroxy-phenyl)acetyl]amino] pyridine-2-carboxamide] | 129 | 40 |
| O=C(Cc1cc(F)ccc1O)Nc1ccnc(C(=O)NC23CCC(F)(C2)C3)c1 [Example 81.4, N-(4-Fluoro-1-bicyclo[2.1.1]hexanyl)-4-[[2-(5-fluoro-2-hydroxy-phenyl)acetyl]amino] pyridine-2-carboxamide] | 122 | 40 |
| COc1ccc(Cl)cc1CC(=O)Nc1cc(C(=O)NC(C)(C)C)ncn1 [Example 82, N-tert-Butyl-6-[[2-(5-chloro-2-methoxy-phenyl)acetyl]amino]pyrimidine-4-carboxamide] | 88 | 720 |
